Reference: the NIST ThermoML archive (doi:10.1016/j.fluid.2017.12.001)

Assay: xn = mol fraction of the nth substance listed
Details: 100.9 kPa, Liquid; for speed of sound: Single path-length method; for mass density: Vibrating tube method; for viscosity: Concentric cylinders viscometry

CCCC(=O)[O-].CC[NH2+]CC [diethylammonium butanoate] + O
Details | mass density [kg/m3] | speed of sound [m/s] | viscosity [mPa·s]
308.15 K, x1 = 0.0123 | 996.9 | – | –
308.15 K, x1 = 0.0453 | 1000.03 | – | –
308.15 K, x1 = 0.1005 | 994.12 | – | –
308.15 K, x1 = 0.1439 | 981.01 | – | –
308.15 K, x1 = 0.2067 | 973.03 | 1659.9 | –
308.15 K, x1 = 0.3096 | 957.65 | 1581.6 | –
308.15 K, x1 = 0.4951 | 938.09 | 1494 | –
308.15 K, x1 = 0.6812 | 927.6 | 1435.5 | –
308.15 K, x1 = 0.7974 | 912 | 1424.2 | –
308.15 K, x1 = 0.974 | 907.1 | 1382.6 | –
310.65 K, x1 = 0.0122 | – | – | 1.06
310.65 K, x1 = 0.0451 | – | – | 2.43
310.65 K, x1 = 0.0999 | – | – | 5.73
310.65 K, x1 = 0.143 | – | – | 8.92
310.65 K, x1 = 0.2051 | – | – | 14.41
310.65 K, x1 = 0.3064 | – | – | 24.13
310.65 K, x1 = 0.4879 | – | – | 34.17
310.65 K, x1 = 0.6684 | – | – | 35.33
310.65 K, x1 = 0.974 | – | – | 30.78
313.15 K, x1 = 0.0122 | – | – | 1.01
313.15 K, x1 = 0.0123 | 995 | 1615.3 | –
313.15 K, x1 = 0.0451 | – | – | 2.26
313.15 K, x1 = 0.0453 | 997.13 | 1743.8 | –
313.15 K, x1 = 0.0999 | – | – | 5.25
313.15 K, x1 = 0.1005 | 991.05 | 1736.7 | –
313.15 K, x1 = 0.143 | – | – | 8.13
313.15 K, x1 = 0.1439 | 977.64 | 1702.2 | –
313.15 K, x1 = 0.2051 | – | – | 13.03
313.15 K, x1 = 0.2067 | 969.96 | 1644.3 | –
313.15 K, x1 = 0.3064 | – | – | 21.59
313.15 K, x1 = 0.3096 | 954.6 | 1565.2 | –
313.15 K, x1 = 0.4879 | – | – | 30.39
313.15 K, x1 = 0.4951 | 934.18 | 1478.3 | –
313.15 K, x1 = 0.6684 | – | – | 31.48
313.15 K, x1 = 0.6812 | 925.21 | 1418.8 | –
313.15 K, x1 = 0.7974 | 908.2 | 1408.5 | –
313.15 K, x1 = 0.974 | 903.2 | 1365.2 | 27.55
315.65 K, x1 = 0.0122 | – | – | 0.96
315.65 K, x1 = 0.0451 | – | – | 2.1
315.65 K, x1 = 0.0999 | – | – | 4.82
315.65 K, x1 = 0.143 | – | – | 7.42
315.65 K, x1 = 0.2051 | – | – | 11.82
315.65 K, x1 = 0.3064 | – | – | 19.39
315.65 K, x1 = 0.4879 | – | – | 27.14
315.65 K, x1 = 0.6684 | – | – | 28.13
315.65 K, x1 = 0.974 | – | – | 24.73
318.15 K, x1 = 0.0122 | – | – | 0.92
318.15 K, x1 = 0.0123 | 992.7 | 1617.5 | –
318.15 K, x1 = 0.0451 | – | – | 1.96
318.15 K, x1 = 0.0453 | 994.15 | 1734.2 | –
318.15 K, x1 = 0.0999 | – | – | 4.45
318.15 K, x1 = 0.1005 | 987.76 | 1722.8 | –
318.15 K, x1 = 0.143 | – | – | 6.82
318.15 K, x1 = 0.1439 | 974.31 | 1687.3 | –
318.15 K, x1 = 0.2051 | – | – | 10.76
318.15 K, x1 = 0.2067 | 967.21 | 1628.7 | –
318.15 K, x1 = 0.3064 | – | – | 17.45
318.15 K, x1 = 0.3096 | 952.7 | 1548.6 | –
318.15 K, x1 = 0.4879 | – | – | 24.28
318.15 K, x1 = 0.4951 | 930.28 | 1462.4 | –
318.15 K, x1 = 0.6684 | – | – | 25.23
318.15 K, x1 = 0.6812 | 922.19 | 1401.9 | –
318.15 K, x1 = 0.7974 | 904.3 | 1393.8 | –
318.15 K, x1 = 0.974 | 899.2 | 1348.2 | 22.26
320.65 K, x1 = 0.0122 | – | – | 0.87
320.65 K, x1 = 0.0451 | – | – | 1.84
320.65 K, x1 = 0.0999 | – | – | 4.11
320.65 K, x1 = 0.143 | – | – | 6.24
320.65 K, x1 = 0.2051 | – | – | 9.82
320.65 K, x1 = 0.3064 | – | – | 15.77
320.65 K, x1 = 0.4879 | – | – | 21.77
320.65 K, x1 = 0.6684 | – | – | 22.68
320.65 K, x1 = 0.974 | – | – | 20.08
